Here are results for three molecules from patent publication US4226980A, “Novel derivatives of fortimicin B and process for preparing same” (Abbott Laboratories, priority 1978, dated 1980).

Like-named read-outs stand apart in the source and are kept apart here.

Data set [1] concerns Bacillus subtilis ATCC 6633. Briefly: antibacterial activity (MIC). The conditions noted are these: medium pH 7.2, Japanese Antibiotic Medicament Standard; unit assumed. The class given is cell-based. As to the method: (§1) Furthermore in the following Table 3, the antibacterial activity (MIC) of the compounds are set forth. The measurement was carried out according to the Japanese Antibiotic Medicament Standard using a medium having a pH of 7.2. Numbers of the compounds in Table 3 correspond to those in Tables 1 and 2.

A further data set relates to Escherichia coli 3100. Briefly: antibacterial activity (MIC). The class given is cell-based. The conditions noted are these: medium pH 7.2, Japanese Antibiotic Medicament Standard; unit assumed. As to the method:
as §1

The next data set relates to Escherichia coli NIHJ-2. The experiment in a line: antibacterial activity (MIC). The class given is cell-based. Conditions: medium pH 7.2, Japanese Antibiotic Medicament Standard; unit assumed. As to the method: as §1
Data set [2] has as its system Klebsiella pneumoniae #8045. Briefly: antibacterial activity (MIC). The data set is classed as cell-based. The conditions noted are these: medium pH 7.2, Japanese Antibiotic Medicament Standard; unit assumed. As to the method: as §1
For a further data set, the system named is Providencia sp. KY3950. The experiment in a line: antibacterial activity (MIC). The data set is classed as cell-based. Conditions: medium pH 7.2, Japanese Antibiotic Medicament Standard; unit assumed. As to the method: as §1
The test system of data set [3] is Pseudomonas aeruginosa BMH#10. Briefly: antibacterial activity (MIC). The data set is classed as cell-based. Conditions: medium pH 7.2, Japanese Antibiotic Medicament Standard; unit assumed. As to the method:
as §1

Data set [4] relates to Shigella sonnei ATCC 9290. The experiment in a line: antibacterial activity (MIC). The class given is cell-based. Conditions: medium pH 7.2, Japanese Antibiotic Medicament Standard; unit assumed. As to the method: as §1
Data set [5] deals with Staphylococcus aureus 209-p. The experiment in a line: antibacterial activity (MIC). Conditions: medium pH 7.2, Japanese Antibiotic Medicament Standard; unit assumed. The class given is cell-based. On the procedure:
as §1

The test system of data set [6] is Staphylococcus aureus Smith. Briefly: antibacterial activity (MIC). Conditions: medium pH 7.2, Japanese Antibiotic Medicament Standard; unit assumed. The data set is classed as cell-based. On the procedure: as §1
Data set [7] concerns Escherichia coli 57R/W677. Briefly: antibacterial activity (MIC), resistant strain. The class given is cell-based. Conditions: medium pH 7.2; strain "producing gentamicin" (footnote 4); unit assumed. On the procedure: as §1
In data set [8] the test system is Escherichia coli R17 Z-343. Briefly: antibacterial activity (MIC), resistant strain. The data set is classed as cell-based. Conditions: medium pH 7.2; strain "producing kanamycin" (footnote 1); unit assumed. On the procedure: as §1
In data set [9] the test system is Escherichia coli R18 KY-8321. The experiment in a line: antibacterial activity (MIC), resistant strain. The data set is classed as cell-based. Conditions: medium pH 7.2; strain producing gentamicin nucleotidyltransferase and neomycin phosphotransferase II; unit assumed. As to the method:
as §1

The subject of data set [10] is Escherichia coli R19 KY-8348. The experiment in a line: antibacterial activity (MIC), resistant strain. The data set is classed as cell-based. Conditions: medium pH 7.2; strain producing gentamicin acetyltransferase; unit assumed. On the procedure: as §1
In data set [11] the test system is Klebsiella pneumniae 3020 Y60. The experiment in a line: antibacterial activity (MIC), resistant strain. The conditions noted are these: medium pH 7.2; strain "producing gentamicin" (footnote 4); unit assumed. The class given is cell-based. As to the method: as §1
In the next data set the test system is Providencia sp. 164. Briefly: antibacterial activity (MIC), resistant strain. The data set is classed as cell-based. Conditions: medium pH 7.2; strain producing gentamicin acetyltransferase (footnote 5); unit assumed. As to the method:
as §1

In data set [12] the test system is Pseudomonas aeruginosa R4 KY8511. The experiment in a line: antibacterial activity (MIC), resistant strain. The class given is cell-based. The conditions noted are these: medium pH 7.2; strain producing gentamicin acetyltransferase; unit assumed. As to the method: as §1
Data set [13] relates to Pseudomonas aeruginosa R9 KY8516. The experiment in a line: antibacterial activity (MIC), resistant strain. The data set is classed as cell-based. Conditions: medium pH 7.2; strain "producing kanamycin" (footnote 1); unit assumed. On the procedure:
as §1

Data set [14] relates to various microorganisms including resistant strains. The conditions noted are these: earlier patents; cited from earlier work.
The format of data set [15] is physicochemical. An excerpt:
That is, Compound I-a is almost decomposed in an alkaline solution with a pH of 10 at room temperature for 2 weeks to form compounds having low activity.

The conditions of data set [16]: strongly alkaline or alkaline conditions; cited from earlier work.

In the case of `CNC1C(O)C(OC2OC(C(C)N)CCC2N)C(N)C(O)C1OC` (stereo not shown) [Compound 1, fortimicin B], the antibacterial activity (MIC) was 25 µg/mL in data set [1]; 100 µg/mL in the data set with Escherichia coli 3100; greater than 100 µg/mL with Escherichia coli NIHJ-2; 100 µg/mL in data set [2]; greater than 100 µg/mL with Providencia sp. KY3950; greater than 100 µg/mL in data set [3]. Further, the antibacterial activity (MIC) in data set [4] is greater than 100 µg/mL; in data set [5], greater than 100 µg/mL; in data set [6], 100 µg/mL; in data set [7], greater than 100 µg/mL; in data set [8], greater than 100 µg/mL; in [9], greater than 100 µg/mL. The antibacterial activity (MIC) (in data set [10]; in data set [11]; in the data set with Providencia sp. 164; in [12]; in data set [13]) was greater than 100 µg/mL throughout. In [14], the “antibacterial activity (background)” value was “not as good as the other factors”.
As for `COC1C(O)C(N)C(OC2OC(C(C)N)CCC2N)C(O)C1N(C)C(=O)CN` (stereo not shown) [Compound 2, fortimicin A, reference compound], the antibacterial activity (MIC) in data set [1] was 0.78 µg/mL; in the data set on Escherichia coli 3100 it was 6.25 µg/mL; with Escherichia coli NIHJ-2 it was 1.56 µg/mL; in data set [2], 1.56 µg/mL; in [3], 0.78 µg/mL; in data set [4], 6.25 µg/mL. Further, the antibacterial activity (MIC) is 0.78 µg/mL in [5]; 1.56 µg/mL in [6]; 6.25 µg/mL in data set [7]; 1.56 µg/mL in data set [8]; 3.12 µg/mL in data set [9]; greater than 100 µg/mL in [10]. Besides, the antibacterial activity (MIC) in data set [11] is 6.25 µg/mL; in the data set with Providencia sp. 164, 3.12 µg/mL; in data set [12], greater than 100 µg/mL; in data set [13] it was 12.5 µg/mL. In [15] (strongly alkaline conditions), the “stability under strongly alkaline conditions” value is given as “slightly unstable”. Further, the “stability under alkaline conditions (background)” value in [16] is listed as “slightly unstable”.
Turning to `COC1C(O)C(N)C(OC2OC(C(C)N)CCC2N)C(O)C1N(C)C(=O)CNC(N)=O` (stereo not shown) [Compound 3, fortimicin C, reference compound], the antibacterial activity (MIC) in [1] came out at 3.12 µg/mL; in the data set with Escherichia coli 3100, 12.5 µg/mL; with Escherichia coli NIHJ-2 it was 3.12 µg/mL; in [2] it was 12.5 µg/mL; in the data set on Providencia sp. KY3950, 25 µg/mL; in [3] it was 3.12 µg/mL. Further, the antibacterial activity (MIC) in data set [4] came out at 25 µg/mL; in data set [5] it was 6.25 µg/mL; in data set [6], 12.5 µg/mL; in data set [7], 6.25 µg/mL; in data set [8], 3.12 µg/mL; in data set [9] it was 12.5 µg/mL. In addition, the antibacterial activity (MIC) in data set [10] was greater than 100 µg/mL; in [11], 50 µg/mL; with Providencia sp. 164 it was 25 µg/mL; in [12], greater than 100 µg/mL; in data set [13], 50 µg/mL. Moreover, in data set [15], the “stability under strongly alkaline conditions” value is “slightly unstable”. The “stability under alkaline conditions (background)” value in [16] is listed as “slightly unstable”.
